Source: patent publication US20260001928A1 (CORTERIA PHARMACEUTICALS, priority 2022, published 2026)
*1 amine or outer side, *2 acyl side, *3 side chain or, on linkers, in order; H or OH if unused. Where a SMILES comes first, the peptide text is derived from it. Where no end group is shown, it is not given here. Side-chain parts run from the residue outwards. [ ]: non-standard residue; d: D form. The star is where a group is joined. C20 diacid = O=C(O)CCCCCCCCCCCCCCCCCCC(=O)*; γGlu = O=C(O)[C@H](CCC(=O)[*:2])N[*:1]; NMeI = CC[C@H](C)[C@H](NC)C(=O)O; Pentanoyl = CCCCC(=O)*; AEEA = NCCOCCOCC(=O)O; Aib = CC(C)(N)C(=O)O

Key:
human CRF2a receptor = molecular target: T1, human CRF2a receptor (Homo sapiens, UniProt Q13324); assay: Activity at human CRF2a receptor, cAMP functional assay in TeloHEAC cells; format: cell-based; details: TeloHEAC cells stably expressing human CRF2a receptor, relative to urocortin 2 (100 nM = 100%)
T1 construct: expressed in transfected cells; host or cells: TeloHEAC cells
T1 sequence (Q13324 1-411): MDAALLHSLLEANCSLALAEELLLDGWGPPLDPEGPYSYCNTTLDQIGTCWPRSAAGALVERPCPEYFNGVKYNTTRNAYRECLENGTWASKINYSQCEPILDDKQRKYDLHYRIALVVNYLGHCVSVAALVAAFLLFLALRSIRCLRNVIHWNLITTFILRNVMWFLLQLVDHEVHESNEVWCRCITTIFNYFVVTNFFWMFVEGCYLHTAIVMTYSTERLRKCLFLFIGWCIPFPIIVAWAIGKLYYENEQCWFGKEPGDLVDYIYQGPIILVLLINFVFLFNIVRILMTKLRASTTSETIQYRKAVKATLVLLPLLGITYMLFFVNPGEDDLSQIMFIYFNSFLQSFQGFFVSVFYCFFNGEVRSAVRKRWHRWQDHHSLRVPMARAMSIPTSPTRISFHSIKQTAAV
Summary of the method: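 TeloHEAC cells stably expressing human CRF2a (10000 cells/well) were treated with 16-point 1:2 compound dilutions in HBSS/20 mM HEPES with IBMX for 30 min at 37° C. cAMP was read by HTRF (665/620 nm ratio). EC50 was the concentration giving 50% activation, with 100 nM urocortin 2 set as 100%.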

CFR1R receptor = molecular target: T2, CFR1R receptor (Homo sapiens, UniProt P34998); assay: Activity at anti-target CFR1R receptor, cAMP assay in CRF1R-overexpression CHO-K1 cells; format: cell-based; details: 100% = Sauvagine at 100 nM
T2 construct: host or cells: CHO-K1 (clone 2)
T2 sequence (P34998 24-415): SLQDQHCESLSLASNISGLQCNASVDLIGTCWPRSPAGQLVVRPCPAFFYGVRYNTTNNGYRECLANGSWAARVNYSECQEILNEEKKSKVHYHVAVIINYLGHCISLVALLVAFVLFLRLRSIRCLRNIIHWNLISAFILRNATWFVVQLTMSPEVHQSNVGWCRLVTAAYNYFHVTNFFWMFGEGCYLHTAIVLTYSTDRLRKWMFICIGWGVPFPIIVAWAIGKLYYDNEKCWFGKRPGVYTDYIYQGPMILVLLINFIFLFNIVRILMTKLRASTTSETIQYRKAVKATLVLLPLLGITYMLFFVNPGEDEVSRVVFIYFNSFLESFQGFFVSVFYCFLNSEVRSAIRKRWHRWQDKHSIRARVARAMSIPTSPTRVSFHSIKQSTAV
Summary of the method: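 Uses frozen stocks of CHO-K1 clone 2 cells overexpressing human CRF1R, plated at 4000 cells/well final, with cAMP measured by the same protocol as the TeloHAEC line. Full-activation control: 100 nM Sauvagine.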

[1] = In vitro subcutaneous tissue supernatant (SCts) stability and metabolite identification, rat; format: in vitro ADME; design: remaining at 2 h: dose or concentration left out as unconfirmed; details: male, Sprague Dawley; rat subcutaneous tissue supernatant (SCts), 37° C, 2 h
[2] = Chemical stability in buffer (pH 7.4 / pH 4.5), % purity loss; format: physicochemical; details: 100 mM phosphate buffer pH 7.4; 40° C. vs 5° C.; 14 or 28 days
Summary of the method: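 LC-UV gave % loss after 14 or 28 days of storage at 5 °C or 40 °C. Samples were diluted supernatants from compound incubated 1 h at room temperature at 10 mg/mL target, in 100 mM acetate pH 4.5 or 100 mM phosphate pH 7.4.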

[3] = Pharmacokinetics in male Sprague Dawley rats after subcutaneous administration; format: in vivo; details: plasma, rat, SC, 0.1 mg/kg
Sprague Dawley rats = assay: Effect on systolic blood pressure, telemetry in Sprague Dawley rats; format: in vivo, rat; details: 0.1 mg/kg SC
Summary of the method: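 Values are % change from a 1 h pre-dose baseline in systolic pressure, tracked by telemetry for up to 48 hours after a single 0.1 mg/kg subcutaneous dose. Rats (Sprague Dawley, n=2 per peptide) carried aortic catheters and recovered at least 10 days post-surgery; duration of action marks the last time point still showing an effect.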

[4] = Pharmacokinetics in male Sprague Dawley rats after subcutaneous administration; format: in vivo; details: plasma, rat
[5] = molecular target: T3, CRF1R (corticotropin-releasing factor receptor 1), on the CRF1R-overexpression CHO-K1 cell line clone 2 (UniProt P34998 24-415, limits assumed); assay: cell-based or functional assay
T3 sequence (looked up): T2 sequence (P34998 24-415)

Molecule: CCCCC(=O)N[C@H](C(=O)N[C@@H](CC(C)C)C(=O)N[C@@H](CO)C(=O)N[C@@H](CC(C)C)C(=O)N[C@@H](CC(=O)O)C(=O)N[C@@H](C(=O)N1CCC[C@H]1C(=O)N[C@H](C(=O)N[C@@H](CCCCN)C(=O)N[C@@H](CC(C)C)C(=O)N[C@@H](CCCCNC(=O)CC[C@H](NC(=O)CCCCCCCCCCCCCCCCCCC(=O)O)C(=O)O)C(=O)N[C@@H](CCCCN)C(=O)N[C@H](C(=O)N[C@@H](CC(C)C)C(=O)N[C@@H](CC(C)C)C(=O)N[C@@H](CCC(=O)O)C(=O)N[C@@H](CCC(N)=O)C(=O)N[C@@H](CCC(=O)O)C(=O)N[C@@H](CCCCN)C(=O)N[C@@H](CCC(N)=O)C(=O)N[C@@H](CCCCN)C(=O)N[C@@H](CCCCN)C(=O)N[C@@H](CCC(N)=O)C(=O)N[C@@H](CCCNC(=N)N)C(=O)N[C@@H](CCC(=O)O)C(=O)N[C@@H](CCC(N)=O)C(=O)N[C@@H](C)C(=O)N[C@@H](CCC(=O)O)C(=O)N[C@H](C(=O)N[C@@H](CC(N)=O)C(=O)NC(C)(C)C(=O)N[C@@H](CCC(N)=O)C(=O)N[C@H](C(=O)N[C@@H](CC(C)C)C(=O)N[C@@H](C)C(=O)N[C@@H](CCC(N)=O)C(=O)N[C@H](C(N)=O)C(C)C)[C@@H](C)CC)[C@@H](C)O)[C@@H](C)CC)[C@@H](C)CC)C(C)C)C(C)C [compound 219] (Pentanoyl-VLSLD[dV]PIKLK([γGlu-C20 diacid])KILLEQEKQKKQREQAETN[Aib]QILAQV-NH2)
- EC50 (human CRF2a receptor): 0.16 nM
- Emax (% I) (CFR1R receptor): 48 % I
- remaining at 2 h [1]: 71%
- Buffer stability pH 7.4 % purity loss [2]: −2.1/Not Tested %
- AUC(0-t) [3]: 4520 ng·h/mL
- Cmax [3]: 156 ng/mL
- Systolic blood pressure (Mean) % change from baseline, 8 h (Sprague Dawley rats; 8 h, n=2): −10%
- Systolic blood pressure (Mean) % change from baseline, 12 h (Sprague Dawley rats; 12 h, n=2): −13%
- Systolic blood pressure (Mean) % change from baseline, 24 h (Sprague Dawley rats; 24 h, n=2): −10%
- Duration of action (Sprague Dawley rats; last time point with an effect on BP still observed): >24 h
- AUC(0-t) ([4]; IV, 0.05 mg/kg): 5320 ng·h/mL
- half-life ([4]; IV, 0.05 mg/kg): 6 h
- Tmax ([4]; SC, 0.1 mg/kg): 8 h
- half-life ([4]; SC, 0.1 mg/kg): 15 h

B1: peptide of SEQ ID NO: 228 (peptide)
peptide: Pentanoyl-VLSLD[dV]PIGLK([γGlu-C20 diacid])KILLEQEKQKKQREQAETN[Aib]QILAQV-NH2
SMILES: CCCCC(=O)N[C@H](C(=O)N[C@@H](CC(C)C)C(=O)N[C@@H](CO)C(=O)N[C@@H](CC(C)C)C(=O)N[C@@H](CC(=O)O)C(=O)N[C@@H](C(=O)N1CCC[C@H]1C(=O)N[C@H](C(=O)NCC(=O)N[C@@H](CC(C)C)C(=O)N[C@@H](CCCCNC(=O)CC[C@H](NC(=O)CCCCCCCCCCCCCCCCCCC(=O)O)C(=O)O)C(=O)N[C@@H](CCCCN)C(=O)N[C@H](C(=O)N[C@@H](CC(C)C)C(=O)N[C@@H](CC(C)C)C(=O)N[C@@H](CCC(=O)O)C(=O)N[C@@H](CCC(N)=O)C(=O)N[C@@H](CCC(=O)O)C(=O)N[C@@H](CCCCN)C(=O)N[C@@H](CCC(N)=O)C(=O)N[C@@H](CCCCN)C(=O)N[C@@H](CCCCN)C(=O)N[C@@H](CCC(N)=O)C(=O)N[C@@H](CCCNC(=N)N)C(=O)N[C@@H](CCC(=O)O)C(=O)N[C@@H](CCC(N)=O)C(=O)N[C@@H](C)C(=O)N[C@@H](CCC(=O)O)C(=O)N[C@H](C(=O)N[C@@H](CC(N)=O)C(=O)NC(C)(C)C(=O)N[C@@H](CCC(N)=O)C(=O)N[C@H](C(=O)N[C@@H](CC(C)C)C(=O)N[C@@H](C)C(=O)N[C@@H](CCC(N)=O)C(=O)N[C@H](C(N)=O)C(C)C)[C@@H](C)CC)[C@@H](C)O)[C@@H](C)CC)[C@@H](C)CC)C(C)C)C(C)C
- EC50 [nM] (cAMP, CRF1R-overexpression CHO-K1 cells) [5]: 90.5 nM
- Emax (% I) (cAMP, 100% = Sauvagine at 100 nM) [5]: 62 % I

B2: peptide of SEQ ID NO: 229 (peptide)
peptide: [NMeI]VLSLD[dV]PIGLK([γGlu-C20 diacid])KILLEQEKQKKQREQAETN[Aib]QILAQV-NH2
modifications: N-terminus assumed
SMILES: CC[C@H](C)[C@H](NC)C(=O)N[C@H](C(=O)N[C@@H](CC(C)C)C(=O)N[C@@H](CO)C(=O)N[C@@H](CC(C)C)C(=O)N[C@@H](CC(=O)O)C(=O)N[C@@H](C(=O)N1CCC[C@H]1C(=O)N[C@H](C(=O)NCC(=O)N[C@@H](CC(C)C)C(=O)N[C@@H](CCCCNC(=O)CC[C@H](NC(=O)CCCCCCCCCCCCCCCCCCC(=O)O)C(=O)O)C(=O)N[C@@H](CCCCN)C(=O)N[C@H](C(=O)N[C@@H](CC(C)C)C(=O)N[C@@H](CC(C)C)C(=O)N[C@@H](CCC(=O)O)C(=O)N[C@@H](CCC(N)=O)C(=O)N[C@@H](CCC(=O)O)C(=O)N[C@@H](CCCCN)C(=O)N[C@@H](CCC(N)=O)C(=O)N[C@@H](CCCCN)C(=O)N[C@@H](CCCCN)C(=O)N[C@@H](CCC(N)=O)C(=O)N[C@@H](CCCNC(=N)N)C(=O)N[C@@H](CCC(=O)O)C(=O)N[C@@H](CCC(N)=O)C(=O)N[C@@H](C)C(=O)N[C@@H](CCC(=O)O)C(=O)N[C@H](C(=O)N[C@@H](CC(N)=O)C(=O)NC(C)(C)C(=O)N[C@@H](CCC(N)=O)C(=O)N[C@H](C(=O)N[C@@H](CC(C)C)C(=O)N[C@@H](C)C(=O)N[C@@H](CCC(N)=O)C(=O)N[C@H](C(N)=O)C(C)C)[C@@H](C)CC)[C@@H](C)O)[C@@H](C)CC)[C@@H](C)CC)C(C)C)C(C)C
- EC50 [nM] (cAMP, CRF1R-overexpression CHO-K1 cells) [5]: 203 nM
- Emax (% I) (cAMP, 100% = Sauvagine at 100 nM) [5]: 43 % I

B3: peptide of SEQ ID NO: 239 (peptide)
peptide: [NMeI]VLSLD[dV]PIKLK([AEEA-AEEA-γGlu-C20 diacid])KILLEQEKQK[Aib]QREQAETN[Aib]QILAQV-NH2
modifications: N-terminus assumed
SMILES: CC[C@H](C)[C@H](NC)C(=O)N[C@H](C(=O)N[C@@H](CC(C)C)C(=O)N[C@@H](CO)C(=O)N[C@@H](CC(C)C)C(=O)N[C@@H](CC(=O)O)C(=O)N[C@@H](C(=O)N1CCC[C@H]1C(=O)N[C@H](C(=O)N[C@@H](CCCCN)C(=O)N[C@@H](CC(C)C)C(=O)N[C@@H](CCCCNC(=O)COCCOCCNC(=O)COCCOCCNC(=O)CC[C@H](NC(=O)CCCCCCCCCCCCCCCCCCC(=O)O)C(=O)O)C(=O)N[C@@H](CCCCN)C(=O)N[C@H](C(=O)N[C@@H](CC(C)C)C(=O)N[C@@H](CC(C)C)C(=O)N[C@@H](CCC(=O)O)C(=O)N[C@@H](CCC(N)=O)C(=O)N[C@@H](CCC(=O)O)C(=O)N[C@@H](CCCCN)C(=O)N[C@@H](CCC(N)=O)C(=O)N[C@@H](CCCCN)C(=O)NC(C)(C)C(=O)N[C@@H](CCC(N)=O)C(=O)N[C@@H](CCCNC(=N)N)C(=O)N[C@@H](CCC(=O)O)C(=O)N[C@@H](CCC(N)=O)C(=O)N[C@@H](C)C(=O)N[C@@H](CCC(=O)O)C(=O)N[C@H](C(=O)N[C@@H](CC(N)=O)C(=O)NC(C)(C)C(=O)N[C@@H](CCC(N)=O)C(=O)N[C@H](C(=O)N[C@@H](CC(C)C)C(=O)N[C@@H](C)C(=O)N[C@@H](CCC(N)=O)C(=O)N[C@H](C(N)=O)C(C)C)[C@@H](C)CC)[C@@H](C)O)[C@@H](C)CC)[C@@H](C)CC)C(C)C)C(C)C
- EC50 [nM] (cAMP, CRF1R-overexpression CHO-K1 cells) [5]: > 250 nM
- Emax (% I) (cAMP, 100% = Sauvagine at 100 nM) [5]: 0 % I
